Experimental data: US20130018033A1, “RAF INHIBITOR COMPOUNDS AND METHODS OF USE THEREOF” (ARRAY BIOPHARMA INC., priority 2009, published 2013)
Read-outs that look alike come from different tables or passages of the source.

Key:
V600E full-length B-Raf = target: T1, V600E full-length B-Raf (Homo sapiens, UniProt P15056, V600E); assay: B-Raf IC50 assay (Example A); format: biochemical
T1 construct: 1 μM FSBA-MEK and 20 nM V600E full-length B-Raf; made in house; host or cells: Sf9 insect cells (baculovirus)
Excerpt: Determining the activity of Raf in the sample is possible by a number of direct and indirect detection methods (US 2004/0082014). Activity of human recombinant B-Raf protein may be assessed in vitro by assay of the incorporation of radio labeled phosphate to recombinant MAP kinase (MEK), a known physiologic substrate of B-Raf, according to US 2004/0127496 and WO 03/022840. The activity/inhibition of V600E full-length B-Raf was estimated by measuring the incorporation of radio labeled phosphate from [γ-^33P]ATP into FSBA-modified wild-type MEK (see Example A).
Activity of human recombinant B-Raf protein may be assessed in vitro by assay of the incorporation of radio labeled phosphate to recombinant MAP kinase (MEK), a known physiologic substrate of B-Raf, according to US 2004/0127496 and WO 03/022840. Catalytically active human recombinant B-Raf protein is obtained by purification from sf9 insect cells infected with a human B-Raf recombinant baculovirus expression vector.
The activity/inhibition of V600E full-length B-Raf was estimated by measuring the incorporation of radio labeled phosphate from [γ-^33P]ATP into FSBA-modified wild-type MEK. The 30-μL assay mixtures contained 25 mM Na Pipes, pH 7.2, 100 mM KCl, 10 mM MgCl2, 5 mM β-glycerophosphate, […], 4 μM ATP, 500 nCi [γ-^33P]ATP, 1 μM FSBA-MEK and 20 nM V600E full-length B-Raf. Incubations were carried out at 22° C. in a Costar 3365 plate (Corning). Prior to the assay, the B-Raf and FSBA-MEK were preincubated together in assay buffer at 1.5×(20 μL of 30 nM and 1.5 μM, respectively) for 15 minutes, and the assay was initiated by the addition of 10 μL of 10 μM ATP. Following the 60-minute incubation, the assay mixtures were quenched by the addition of 100 μL of 25% TCA, the plate was mixed on a rotary shaker for 1 minute, and the product was captured on a Perkin-Elmer GF/B filter plate using a Tomtec Mach III Harvester. After sealing the bottom of the plate, 35 μL of Bio-Safe II (Research Products International) scintillation cocktail were added to each well and the plate was top-sealed and counted in a Topcount NXT (Packard).

[1] = test system: basal ERK1/2 phosphorylation in Malme-3M cells; assay: Cellular ERK 1/2 phosphorylation assay (Example A1); format: cell-based; conditions: Homo sapiens, 1 hour incubation, pERK normalized to total ERK, read-out: P-ERK Malme3-M IC50
Protocol: Inhibition of basal ERK1/2 phosphorylation was determined by the following in vitro […], which comprises incubating cells with a compound of Formula I for 1 hour and quantifying the fluorescent pERK signal on fixed cells and normalizing to total ERK signal.
Malme-3M cells were obtained from ATCC and grown in RPMI-1640 supplemented with 10% fetal bovine serum. Cells were plated in 96-well plates at 24,000 cells/well and allowed to attach for 16-20 hours at 37° C., 5% CO2. The media was removed, and DMSO-diluted compounds were added in RPMI-1640 at a final concentration of 1% DMSO. The cells were incubated with the compounds for 1 hour at 37° C., 5% CO2. The cells were washed with PBS and fixed in 3.7% formaldehyde in PBS for 15 minutes. This was followed by washing in PBS/0.05% Tween20 and permeabilizing in −20° C. 100% MeOH for 15 minutes. Cells were washed in PBS/0.05% Tween20 then blocked in Odyssey blocking buffer (LI-COR Biosciences) for 1 hour. Antibodies to phosphorylated ERK (1:400, Cell Signaling #9106, monoclonal) and total ERK (1:400, Santa Cruz Biotechnology #sc-94, polyclonal) were added to the cells and incubated 16-20 hours at 4° C. After washing with PBS/0.05% Tween20, the cells were incubated with fluorescently-labeled secondary antibodies (1:1000 goat anti-rabbit IgG-IRDye800, Rockland and 1:500 goat anti-mouse IgG-Alexa Fluor 680, Molecular Probes) for an additional hour. Cells were then washed and analyzed for fluorescence at both wavelengths using the Odyssey Infrared Imaging System (LI-COR Biosciences). Phosphorylated ERK signal was normalized to total ERK signal.

[2] = B-Raf V600E assay of Example A, read-out: IC50
[3] = [γ-33P]ATP incorporation into FSBA-MEK, 4 μM ATP, read-out: BRAF V600E IC50

T1 sequence (P15056 whole entry V600E): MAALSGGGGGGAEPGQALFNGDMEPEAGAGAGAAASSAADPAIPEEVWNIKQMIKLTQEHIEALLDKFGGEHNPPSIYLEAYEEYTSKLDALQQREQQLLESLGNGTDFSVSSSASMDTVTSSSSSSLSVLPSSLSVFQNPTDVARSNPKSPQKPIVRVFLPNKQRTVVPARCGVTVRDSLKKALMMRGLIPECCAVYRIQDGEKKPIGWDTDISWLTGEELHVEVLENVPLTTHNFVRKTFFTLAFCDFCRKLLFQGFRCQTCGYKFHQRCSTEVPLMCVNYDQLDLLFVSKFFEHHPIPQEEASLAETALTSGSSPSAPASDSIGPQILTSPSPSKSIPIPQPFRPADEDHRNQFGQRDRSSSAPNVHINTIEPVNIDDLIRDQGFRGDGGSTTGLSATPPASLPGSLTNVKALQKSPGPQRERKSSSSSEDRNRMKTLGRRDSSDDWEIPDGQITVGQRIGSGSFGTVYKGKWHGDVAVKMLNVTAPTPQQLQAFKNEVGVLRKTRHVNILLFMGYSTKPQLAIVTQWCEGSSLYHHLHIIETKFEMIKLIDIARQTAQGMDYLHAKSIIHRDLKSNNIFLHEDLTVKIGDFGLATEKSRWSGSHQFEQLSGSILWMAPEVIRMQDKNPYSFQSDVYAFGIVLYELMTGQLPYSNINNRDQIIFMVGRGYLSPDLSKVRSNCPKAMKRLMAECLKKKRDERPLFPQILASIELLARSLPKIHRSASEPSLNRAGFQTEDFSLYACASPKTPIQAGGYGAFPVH

IC50 (V600E full-length B-Raf; [2])	IC50 (V600E full-length B-Raf; [3])	SMILES	IC50 (V600E full-length B-Raf; BRAF V600E IC50 (μM), [γ-33P]ATP incorporation into FSBA-MEK, 4 μM ATP)	IC50 [1]
< 100 nM	1.25 nM	CCCS(=O)(=O)Nc1ccc(F)c(NC(=O)c2cncc3c(N)ncnc23)c1F [Example 2, 4-Amino-pyrido[4,3-d]pyrimidine-8-carboxylic acid [2,6-difluoro-3-(propane-1-sulfonylamino)-phenyl]-amide]		9.6 nM
< 1000 nM	191 nM	CCCS(=O)(=O)Nc1ccc(F)c(NC(=O)c2cccc3c(N)ncnc23)c1OC [Example 4, 4-Amino-quinazoline-8-carboxylic acid [6-fluoro-2-methoxy-3-(propane-1-sulfonylamino)-phenyl]-amide]		433 nM
< 100 nM	4.77 nM	CCCS(=O)(=O)Nc1cccc(NC(=O)c2cccc3c(N)ncnc23)c1Cl [Example 5, 4-Amino-quinazoline-8-carboxylic acid [2-chloro-3-(propane-1-sulfonylamino)-phenyl]-amide]		40.7 nM
< 100 nM	50.4 nM	CCCS(=O)(=O)Nc1ccc(F)c(NC(=O)c2cccc3c(N)ncnc23)c1 [Example 6, 4-Amino-quinazoline-8-carboxylic acid [2-fluoro-5-(propane-1-sulfonylamino)-phenyl]-amide]		1720 nM
< 100 nM	0.07 nM	CCCS(=O)(=O)Nc1ccc(Cl)c(NC(=O)c2cccc3c(N)ncnc23)c1Cl [Example 7, 4-Amino-quinazoline-8-carboxylic acid [2,6-dichloro-3-(propane-1-sulfonylamino)-phenyl]-amide]		7.2 nM
< 100 nM	10.8 nM	CCCS(=O)(=O)Nc1cccc(NC(=O)c2cccc3c(N)ncnc23)c1F [Example 8, 4-Amino-quinazoline-8-carboxylic acid [2-fluoro-3-(propane-1-sulfonylamino)-phenyl]-amide]		32.6 nM
< 100 nM	0.39 nM	CCCS(=O)(=O)Nc1cc(F)c(F)c(NC(=O)c2cccc3c(N)ncnc23)c1F [Example 9, 4-Amino-quinazoline-8-carboxylic acid [2,3,6-trifluoro-5-(propane-1-sulfonylamino)-phenyl]-amide]		12 nM
	> 1000 nM	CCCS(=O)(=O)Nc1cc(F)c(F)c(NC(=O)c2cccc3c(NC4CCCCC4)ncnc23)c1F [Example 41, 4-Cyclohexylamino-quinazoline-8-carboxylic acid [2,3,6-trifluoro-5-(propane-1-sulfonylamino)-phenyl]-amide]		
	> 1000 nM	CCCS(=O)(=O)Nc1cc(F)c(F)c(NC(=O)c2cccc3c(NC4CCOCC4)ncnc23)c1F [Example 42, 4-(Tetrahydropyran-4-ylamino)-quinazoline-8-carboxylic acid [2,3,6-trifluoro-5-(propane-1-sulfonylamino)-phenyl]-amide]		
	> 1000 nM	CCCS(=O)(=O)Nc1cc(F)c(F)c(NC(=O)c2cccc3c(NC4CCNCC4)ncnc23)c1F [Example 44, 4-(Piperidin-4-ylamino)-quinazoline-8-carboxylic acid [2,3,6-trifluoro-5-(propane-1-sulfonylamino)-phenyl]-amide]		
< 1000 nM	545 nM	CCCS(=O)(=O)Nc1cc(F)c(F)c(NC(=O)c2cccc3c(NC4CC4)ncnc23)c1F [Example 45, 4-Cyclopropylamino-quinazoline-8-carboxylic acid [2,3,6-trifluoro-5-(propane-1-sulfonylamino)-phenyl]-amide]		
	> 1000 nM	CCCS(=O)(=O)Nc1cc(F)c(F)c(NC(=O)c2cccc3c(NC4CCC(F)(F)CC4)ncnc23)c1F [Example 46, 4-(4,4-Difluoro-cyclohexylamino)-quinazoline-8-carboxylic acid [2,3,6-trifluoro-5-(propane-1-sulfonylamino)-phenyl]-amide]		
	> 1000 nM	CCCS(=O)(=O)Nc1cc(F)c(F)c(NC(=O)c2cccc3c(Nc4ccn(C)n4)ncnc23)c1F [Example 48, 4-(1-Methyl-1H-pyrazol-3-ylamino)-N-(2,3,6-trifluoro-5-(propylsulfonamido)phenyl)quinazoline-8-carboxamide]		
< 1000 nM	737 nM	CCCS(=O)(=O)Nc1cc(F)c(F)c(NC(=O)c2cccc3c(NCC)ncnc23)c1F [Example 49, 4-Ethylamino-quinazoline-8-carboxylic acid [2,3,6-trifluoro-5-(propane-1-sulfonylamino)-phenyl]-amide]		
	> 1000 nM	CCCS(=O)(=O)Nc1cc(F)c(F)c(NC(=O)c2cccc3c(NC)ncnc23)c1F [Example 50, 4-Methylamino-quinazoline-8-carboxylic acid [2,3,6-trifluoro-5-(propane-1-sulfonylamino)-phenyl]-amide]		
< 1000 nM	976 nM	O=C(Nc1c(F)ccc(NS(=O)(=O)CC2CC2)c1F)c1cccc2c(NC3CC3)ncnc12 [Example 53, 4-Cyclopropylamino-quinazoline-8-carboxylic acid (3-cyclopropylmethanesulfonylamino-2,6-difluoro-phenyl)-amide]		
	> 1000 nM	CCCS(=O)(=O)Nc1ccc(F)c(NC(=O)c2cc(C)cc3c(NC4CCCC4)ncnc23)c1F [Example 71, 4-Cyclopentylamino-6-methyl-quinazoline-8-carboxylic acid [2,6-difluoro-3-(propane-1-sulfonylamino)-phenyl]-amide]		
< 1000 nM	879 nM	CCCS(=O)(=O)Nc1ccc(F)c(NC(=O)c2cc(C)cc3c(NC4CC4)ncnc23)c1F [Example 73, 4-Cyclopropylamino-6-methyl-quinazoline-8-carboxylic acid [2,6-difluoro-3-(propane-1-sulfonylamino)-phenyl]-amide]		
	> 1000 nM	CCCS(=O)(=O)Nc1ccc(F)c(NC(=O)c2cc(C)cc3c(NC4CCOCC4)ncnc23)c1F [Example 74, 6-Methyl-4-(tetrahydro-pyran-4-ylamino)-quinazoline-8-carboxylic acid [2,6-difluoro-3-(propane-1-sulfonylamino)-phenyl]-amide]		
	> 1000 nM	CCCS(=O)(=O)Nc1ccc(F)c(NC(=O)c2cc(C)cc3c(NC4CCC4)ncnc23)c1F [Example 75, 4-Cyclobutylamino-6-methyl-quinazoline-8-carboxylic acid [2,6-difluoro-3-(propane-1-sulfonylamino)-phenyl]-amide]		
	> 1000 nM	CCCS(=O)(=O)Nc1ccc(F)c(NC(=O)c2cc(C)cc3c(NC4CCC(F)(F)CC4)ncnc23)c1F [Example 76, 4-(4,4-Difluoro-cyclohexylamino)-6-methyl-quinazoline-8-carboxylic acid [2,6-difluoro-3-(propane-1-sulfonylamino)-phenyl]-amide]		

SMILES	IC50 (V600E full-length B-Raf; [2])	IC50 (V600E full-length B-Raf; [3])	IC50 (V600E full-length B-Raf; BRAF V600E IC50 (μM), [γ-33P]ATP incorporation into FSBA-MEK, 4 μM ATP)	IC50 [1]
CCCS(=O)(=O)Nc1ccc(F)c(NC(=O)c2cccc3c(N)ncnc23)c1F [Example 1, 4-Amino-quinazoline-8-carboxylic acid [2,6-difluoro-3-(propane-1-sulfonylamino)-phenyl]-amide]	< 100 nM		1.77 nM	8.67 nM
